Source: patent publication US11925629B2, “Heterocyclic inhibitors of ERK1 and ERK2 and their use in the treatment of cancer” (Asana Biosciences, LLC, priority 2015, dated 2024)
pIC50: −log10 of the molar value.

Legend:
[1] = test system: HT-29 (colorectal carcinoma, B-RafV600E) cells; test: Cell proliferation (Alamar Blue) assay, HT-29; assay type: cell-based, human
Experimental: (§1) Cell Proliferation (Alamar Blue) Assay
(§2) HT-29 (colorectal carcinoma, B-RafV600E), HCT116 (colorectal carcinoma, K Ras G13D), A375 (melanoma, B-RafV600E) and SK-Mel2 (melanoma, NRAS Q61R) cells (obtained from ATCC, USA) were seeded (5000 cells/well) in 96-well tissue culture plate and incubated at 37° C./5% CO2 for 16-24 hours. The cells were then treated with compounds, at concentrations typically from 0.0005 to 10 uM prepared in 3-fold serial dilutions. The plates were then incubated for 72 h at 37° C./5% CO2 in a moist environment. Then Alamar Blue™ reagent (final concentration 1×) was added to each well and incubated for 1-3 h at 37° C./5% CO2. The plates were read on fluorescence reader at 540 nm excitation and 590 nm emission wavelengths. The IC50 values were subsequently determined using a sigmoidal dose-response curve (variable slope) using GraphPad Prism® 5 software.

[2] = test system: HCT116 (colorectal carcinoma, K Ras G13D) cells; test: Cell proliferation (Alamar Blue) assay, HCT116; assay type: cell-based, human
Experimental: as §1, §2

[3] = Homo sapiens, HT-29, HT29 cells
[4] = Homo sapiens, HCT-116, HCT116 cells

| Compound | pIC50 [1, 3] | pIC50 [2, 4] | pIC50 ([1]; HT29 cells) | pIC50 ([2]; HCT116 cells) |
| --- | --- | --- | --- | --- |
| Cc1cnc(Nc2ccc3c(c2)OCO3)cc1-n1cnc(C(=O)NC(CO)c2cccc(Cl)c2)c1 (stereo not drawn) [Example 88, 1-(2-(benzo[d][1,3]dioxol-5-ylamino)-5-methyl-pyridin-4-yl)-N-(1-(3-chloro-phenyl)-2-hydroxy-ethyl)-1H-imidazole-4-carboxamide] | < 5.60 | < 5.60 | – | – |
| Cc1cnc(Nc2ccc3c(c2)OC(F)(F)O3)cc1-n1cnc(C(=O)NC(CO)c2cccc(Cl)c2)c1 (stereo not drawn) [Example 90, N-(1-(3-chlorophenyl)-2-hydroxy-ethyl)-1-(2-((2,2-difluoro-benzo[d][1,3]dioxol-5-yl)amino)-5-methyl-pyridin-4-yl)-1H-imidazole-4-carboxamide] | < 5.60 | < 5.60 | – | – |
| O=C(Nc1cnn(-c2ccnc(Nc3cccnc3)n2)c1)N[C@H](CO)c1cccc(Cl)c1 [Example 24, (S)-1-(1-(3-chlorophenyl)-2-hydroxy-ethyl)-3-(1-(2-(pyridin-3-yl-amino)pyrimidin-4-yl)-1H-pyrazol-4-yl)urea] | < 5.60 | < 5.60 | – | – |
| Cc1cnc(Nc2ccc(F)cc2Cl)nc1-n1cc(C(=O)NC(CO)c2cccc(Cl)c2)cn1 (stereo not drawn) [Example 45, 1-(2-((2-chloro-4-fluorophenyl)amino)-5-methyl-pyrimidin-4-yl)-N-(1-(3-chlorophenyl)-2-hydroxy-ethyl)-1H-pyrazole-4-carboxamide] | < 5.60 | < 5.60 | – | – |
| CN1CCN(c2ccc(Nc3nccc(-n4cc(NC(=O)N[C@H](CO)c5cccc(Cl)c5)cn4)n3)cc2)CC1 [Example 22, (S)-1-(1-(3-chlorophenyl)-2-hydroxy-ethyl)-3-(1-(2-((4-(4-methyl-piperazin-1-yl)-phenyl)amino)pyrimidin-4-yl)-1H-pyrazol-4-yl)urea] | < 5.60 | < 5.60 | – | – |
| O=C(NC(CO)c1cccc(Cl)c1)c1ccn(-c2ccnc(Nc3ccc(F)cc3Cl)n2)c1 (stereo not drawn) [Example 111, 1-(2-((2-chloro-4-fluorophenyl)amino)pyrimidin-4-yl)-N-(1-(3-chlorophenyl)-2-hydroxy-ethyl)-1H-pyrrole-3-carboxamide] | < 5.60 | < 5.60 | – | – |
| Cc1cnc(NC2CC2)nc1-n1cc(NC(=O)N[C@H](CO)c2cccc(Cl)c2)cn1 [Example 3, (S)-1-(1-(3-chlorophenyl)-2-hydroxyethyl)-3-(1-(2-(cyclo-propyl-amino)-5-methyl-pyrimidin-4-yl)-1H-pyrazol-4-yl)urea] | < 5.60 | < 5.60 | – | – |
| Cc1cnc(Nc2ccc3c(c2)OC(F)(F)O3)cc1-n1cnc(C(=O)NC(CN)Cc2ccccc2)c1 (stereo not drawn) [Example 99, N-(1-amino-3-phenyl-propan-2-yl)-1-(2-((2,2-difluoro-benzo[d][1,3]dioxol-5-yl)amino)-5-methyl-pyridin-4-yl)-1H-imidazole-4-carboxamide] | < 5.60 | < 5.60 | – | – |
| Cc1cnc(Nc2ccc(F)cc2Cl)nc1-n1ccc(C(=O)N[C@H](CO)c2cccc(Cl)c2)c1 [Example 57, (S)-1-(2-((2-chloro-4-fluorophenyl)-amino)-5-methyl-pyrimidin-4-yl)-N-(1-(3-chlorophenyl)-2-hydroxy-ethyl)-1H-pyrrole-3-carboxamide] | – | – | < 5.60 | < 5.60 |
| Cc1cnc(NC2CCOCC2)nc1-n1cnc(C(=O)N[C@@H](CO)c2cccc(Cl)c2)c1 [Example 217, (R)-N-(1-(3-chlorophenyl)-2-hydroxyethyl)-1-(5-methyl-2-((tetrahydro-2H-pyran-4-yl)amino)pyrimidin-4-yl)-1H-imidazole-4-carboxamide] | < 5.60 | < 5.60 | – | – |

Results, then the compound that gave them:

| pIC50 [1, 3] | pIC50 [2, 4] | pIC50 ([1]; HT29 cells) | pIC50 ([2]; HCT116 cells) | Compound |
| --- | --- | --- | --- | --- |
| < 5.60 | < 5.60 | – | – | Cc1cn(-c2nc(Nc3ccc(F)cc3)ncc2C)cc1C(=O)NC(CO)c1ccccc1 (stereo not drawn) [Example 108, 1-(2-((4-fluoro-phenyl)amino)-5-methyl-pyrimidin-4-yl)-N-(2-hydroxy-1-phenylethyl)-4-methyl-1H-pyrrole-3-carboxamide] |
| 5.60 to 6.30 | < 5.60 | – | – | Cc1cnc(Nc2ccc3c(c2)OC(F)(F)O3)cc1-n1ccc(C(=O)NC(CO)c2cccc(Cl)c2)c1 (stereo not drawn) [Example 92, N-(1-(3-chlorophenyl)-2-hydroxy-ethyl)-1-(2-((2,2-difluoro-benzo[d][1,3]dioxol-5-yl)amino)-5-methyl-pyridin-4-yl)-1H-pyrrole-3-carboxamide] |
| 6.30 to 6.60 | 6.30 to 6.60 | – | – | Cc1cnc(Nc2ccc(F)c(N3CCOCC3)c2)nc1-n1cnc(C(=O)NC(CO)c2cccc(Cl)c2)c1 (stereo not drawn) [Example 223, N-(1-(3-chlorophenyl)-2-hydroxyethyl)-1-(2-((4-fluoro-3-morpholinophenyl)amino)-5-methylpyrimidin-4-yl)-1H-imidazole-4-carboxamide] |
| < 5.60 | < 5.60 | – | – | O=C(NC(CO)c1ccccc1)c1ccn(-c2ccnc(Nc3ccc(F)cc3Cl)c2)c1 (stereo not drawn) [Example 82, 1-(2-((2-chloro-4-fluorophenyl)amino)pyridin-4-yl)-N-(2-hydroxy-1-phenylethyl)-1H-pyrrole-3-carboxamide] |
| < 5.60 | < 5.60 | – | – | Cc1cnc(Nc2ccc3c(c2)OCO3)nc1-n1cc(C(=O)NC(CO)c2cccc(Cl)c2)cn1 (stereo not drawn) [Example 41, 1-(2-(benzo[d][1,3]dioxol-5-ylamino)-5-methyl-pyrimidin-4-yl)-N-(1-(3-chloro-phenyl)-2-hydroxy-ethyl)-1H-pyrazole-4-carboxamide] |
| < 5.60 | < 5.60 | – | – | Cc1cnc(Nc2ccc(F)cc2Cl)nc1-n1cc(C(=O)NC(CN)c2ccccc2)cn1 (stereo not drawn) [Example 54, N-(2-amino-1-phenylethyl)-1-(2-((2-chloro-4-fluoro-phenyl)amino)-5-methyl-pyrimidin-4-yl)-1H-pyrazole-4-carboxamide] |
| < 5.60 | < 5.60 | – | – | CC[C@@H](CO)Nc1ncc(C)c(-n2ccc(C(=O)N[C@@H](CO)c3cccc(Cl)c3)c2)n1 [Example 218, N-((R)-1-(3-chlorophenyl)-2-hydroxyethyl)-1-(2-(((S)-1-hydroxybutan-2-yl)amino)-5-methylpyrimidin-4-yl)-1H-pyrrole-3-carboxamide] |
| < 5.60 | < 5.60 | – | – | Cc1cnc(Nc2ccc3c(c2)OCO3)nc1-n1cc(NC(=O)N[C@@H](CO)c2cccc(Cl)c2)cn1 [Example 51, (R)-1-(1-(2-(benzo[d][1,3]dioxol-5-ylamino)-5-methyl-pyrimidin-4-yl)-1H-pyrazol-4-yl)-3-(1-(3-chloro-phenyl)-2-hydroxy-ethyl)urea] |
| 5.60 to 6.30 | < 5.60 | – | – | Cc1cnc(NC2CCN(C)C2)nc1-n1ccc(C(=O)N[C@H](CO)c2cccc(Cl)c2)c1 (stereo partly drawn) [Example 208, N-((S)-1-(3-chlorophenyl)-2-hydroxyethyl)-1-(5-methyl-2-((1-methylpyrrolidin-3-yl)amino)pyrimidin-4-yl)-1H-pyrrole-3-carboxamide] |
| < 5.60 | < 5.60 | – | – | Cc1cnc(NC2CC2)nc1-n1cc(C(=O)N[C@H](CO)c2cccc(Cl)c2)cn1 [Cmpd 39, (S)-N-(1-(3-chlorophenyl)-2-hydroxy-ethyl)-1-(2-(cyclopropyl-amino)-5-methyl-pyrimidin-4-yl)-1H-pyrazole-4-carboxamide] |
| < 5.60 | < 5.60 | – | – | Cc1cnc(Nc2ccc3c(c2)OCO3)nc1-n1cc(NC(=O)N[C@H](CO)c2ccccc2)cn1 [Cmpd 55, (S)-1-(1-(2-(benzo[d][1,3]dioxol-5-ylamino)-5-methyl-pyrimidin-4-yl)-1H-pyrazol-4-yl)-3-(2-hydroxy-1-phenylethyl) urea] |
